The target of this assay is T1, F508del (Homo sapiens, UniProt P13569, DEL508-508).
T1 construct: expressed in transfected cells
As to the kind of experiment: Protocol 2: FRET membrane potential optical assay (VIPR), identification of correction compounds. In kind it is cell-based. In a few lines: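 Mouse NIH3T3 cells, stable F508del; cpd 16 hrs, 37° C., serum-free; pos ctrl 27° C. 16 hrs. Rinse in Krebs Ringers, dye load, then add 10 μM forskolin + 20 μM genistein with Cl^−-free (gluconate) medium; depolarization by FRET voltage dyes.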

Setting [1] is: F508del CFTR modulator activity, compounds of Table 1, read-out: EC30.
Where [2] appears, read: Table 3, compounds of Table 1 as modulators of CFTR activity, protocol not stated.

The structures appear in SMILES notation. Where two headings read alike, the source gives them in different places.

T1 sequence (P13569 with tags, fused parts or gaps DEL508-508): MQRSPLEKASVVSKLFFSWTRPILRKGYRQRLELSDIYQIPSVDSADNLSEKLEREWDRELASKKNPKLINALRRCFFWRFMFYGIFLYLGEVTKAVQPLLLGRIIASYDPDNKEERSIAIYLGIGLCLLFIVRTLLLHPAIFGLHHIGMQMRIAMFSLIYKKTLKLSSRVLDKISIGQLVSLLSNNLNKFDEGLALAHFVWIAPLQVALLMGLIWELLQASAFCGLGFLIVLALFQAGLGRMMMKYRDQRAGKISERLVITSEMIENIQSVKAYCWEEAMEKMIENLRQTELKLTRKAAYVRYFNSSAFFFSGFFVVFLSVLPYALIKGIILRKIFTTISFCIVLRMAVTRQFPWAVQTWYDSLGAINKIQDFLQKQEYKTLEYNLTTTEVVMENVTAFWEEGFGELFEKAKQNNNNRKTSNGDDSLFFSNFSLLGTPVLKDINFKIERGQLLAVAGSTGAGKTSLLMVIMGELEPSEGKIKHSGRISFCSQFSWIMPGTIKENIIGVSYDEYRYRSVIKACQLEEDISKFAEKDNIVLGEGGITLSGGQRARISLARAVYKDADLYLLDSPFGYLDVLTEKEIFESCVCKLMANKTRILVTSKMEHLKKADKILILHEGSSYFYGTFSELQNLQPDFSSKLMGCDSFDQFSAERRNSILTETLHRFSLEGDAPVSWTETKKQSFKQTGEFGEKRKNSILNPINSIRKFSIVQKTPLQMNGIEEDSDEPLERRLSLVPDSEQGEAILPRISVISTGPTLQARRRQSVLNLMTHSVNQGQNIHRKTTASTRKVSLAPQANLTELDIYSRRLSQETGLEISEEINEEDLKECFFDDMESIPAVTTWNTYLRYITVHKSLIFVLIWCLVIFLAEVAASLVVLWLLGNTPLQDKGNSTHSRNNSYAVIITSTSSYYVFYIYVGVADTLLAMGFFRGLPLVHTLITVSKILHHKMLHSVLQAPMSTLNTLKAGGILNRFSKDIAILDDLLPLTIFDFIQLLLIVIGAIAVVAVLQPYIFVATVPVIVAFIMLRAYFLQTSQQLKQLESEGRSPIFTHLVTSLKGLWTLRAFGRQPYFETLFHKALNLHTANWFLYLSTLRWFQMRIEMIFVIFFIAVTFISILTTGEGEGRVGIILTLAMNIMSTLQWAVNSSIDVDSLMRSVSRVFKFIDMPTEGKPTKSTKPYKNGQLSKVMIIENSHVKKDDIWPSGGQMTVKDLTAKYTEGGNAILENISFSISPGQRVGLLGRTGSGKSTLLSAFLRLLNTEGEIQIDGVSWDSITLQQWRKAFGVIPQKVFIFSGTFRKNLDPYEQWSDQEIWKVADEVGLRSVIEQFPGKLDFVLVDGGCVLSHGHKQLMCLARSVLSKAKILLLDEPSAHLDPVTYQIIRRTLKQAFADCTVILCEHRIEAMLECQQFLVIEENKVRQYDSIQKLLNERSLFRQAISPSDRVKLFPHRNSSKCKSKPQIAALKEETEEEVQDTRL

As to `CC1CN(c2ncc(-c3ccc(C(F)(F)F)cc3)cc2C(=O)NS(=O)(=O)c2cccc(N)n2)C(C)(C)C1` (stereo not shown) [Compound 2337, N-[(6-amino-2-pyridyl)sulfonyl]-5-[4-(trifluoromethyl)phenyl]-2-(2,2,4-trimethylpyrrolidin-1-yl)pyridine-3-carboxamide], under setting [1], the EC30 was below 3000 nM. Regarding `COc1c(C)cccc1-c1ccc(C(=O)NS(=O)(=O)c2cccnc2N)c(N2C[C@@H](C)CC2(C)C)n1` [Compound 2380, N-[(2-amino-3-pyridyl)sulfonyl]-6-(2-methoxy-3-methyl-phenyl)-2-[(4S)-2,2,4-trimethylpyrrolidin-1-yl]pyridine-3-carboxamide], the EC30 under setting [1] is below 3000 nM. As for `Cc1cc(C)c(Oc2nc(-c3ccc(OC(C)C)cc3)ccc2C(=O)NS(=O)(=O)c2cccc(N)n2)c(C)c1` [Compound 436, N-[(6-amino-2-pyridyl)sulfonyl]-6-(4-isopropoxyphenyl)-2-(2,4,6-trimethylphenoxy)pyridine-3-carboxamide], under setting [2], the EC30 entry is “+++ (“+++” means <3 uM)”. The same measure, in the same setting: under `CCCOc1ccc(F)c(-c2ccc(C(=O)NS(=O)(=O)c3ccc[nH]c3=O)c(Oc3c(C)cc(C)cc3C)n2)c1` [Compound 552, 6-(2-fluoro-5-propoxy-phenyl)-N-[(2-oxo-1H-pyridin-3-yl)sulfonyl]-2-(2,4,6-trimethylphenoxy)pyridine-3-carboxamide] stands “++ (“++” means between 3 uM and 10 uM)”. With `Cc1cccc(C)c1Cn1nc(-c2cccc(C(F)(F)F)c2)cc1C(=O)NS(=O)(=O)c1ccccc1` [Compound 220, N-(benzenesulfonyl)-2-[(2,6-dimethylphenyl)methyl]-5-[3-(trifluoromethyl)phenyl]pyrazole-3-carboxamide], the EC30 result under setting [2] was “+++ (“+++” means <3 uM)”. For `CC1CN(c2ncccc2C(=O)NS(=O)(=O)c2cccc(N[C@H](C)C(C)(C)C)n2)C(C)(C)C1` (stereo partly shown) [Compound 2745], the EC30 under setting [1] was below 3000 nM. Regarding `Cc1cc(C)c(Cn2c(C(=O)NS(=O)(=O)c3ccccc3)cc3cc(F)ccc32)c(C)c1` [Compound 33, N-(benzenesulfonyl)-5-fluoro-1-[(2,4,6-trimethylphenyl)methyl]indole-2-carboxamide], under setting [2], the EC30 entry was “+++ (“+++” means <3 uM)”. In the case of `CCOc1cc(-c2ccc(C(=O)NS(=O)(=O)c3ccc[nH]c3=O)c(N3C[C@@H](C)CC3(C)C)n2)ccc1F` [Compound 2459, 6-(3-ethoxy-4-fluoro-phenyl)-N-[(2-oxo-1H-pyridin-3-yl)sulfonyl]-2-[(4S)-2,2,4-trimethylpyrrolidin-1-yl]pyridine-3-carboxamide], the EC30 under setting [1] was below 3000 nM. Still for that read-out and setting: under `CC1CN(c2ncccc2C(=O)NS(=O)(=O)c2cccc(Nc3ccc(C(F)(F)F)nc3)n2)C(C)(C)C1` (stereo not shown) [Compound 2466, N—[[6-[[6-(trifluoromethyl)-3-pyridyl]amino]-2-pyridyl]sulfonyl]-2-(2,2,4-trimethylpyrrolidin-1-yl)pyridine-3-carboxamide] stands below 3000 nM. The same measure, in the same setting: for `CC1CN(c2ncccc2C(=O)NS(=O)(=O)c2cccc(Oc3ccc(Cl)cc3)n2)C(C)(C)C1` (stereo not shown) [Compound 2145, N—[[6-(4-chlorophenoxy)-2-pyridyl]sulfonyl]-2-(2,2,4-trimethylpyrrolidin-1-yl)pyridine-3-carboxamide] the value was below 3000 nM. For `CC(C)Oc1ccc(-c2ccc(C(=O)NS(=O)(=O)c3cccc(N)n3)c(N3C(C)CC(c4ccccc4)C3C)n2)cn1` (stereo not shown) [Compound 601, N-[(6-amino-2-pyridyl)sulfonyl]-2-(2,5-dimethyl-3-phenyl-pyrrolidin-1-yl)-6-(6-isopropoxy-3-pyridyl)pyridine-3-carboxamide], the EC30 result under setting [2] was “+++ (“+++” means <3 uM)”. `CC(C)COc1cc(F)cc(-c2ccc(C(=O)NS(=O)(=O)c3cccc(N)n3)c(N3CC4C(C3)C4(C)C)n2)c1` (stereo not shown) [Compound 609, N-[(6-amino-2-pyridyl)sulfonyl]-2-(6,6-dimethyl-3-azabicyclo[3.1.0]hexan-3-yl)-6-(3-fluoro-5-isobutoxy-phenyl)pyridine-3-carboxamide]: under setting [2], the EC30 result is reported as “+++ (“+++” means <3 uM)”.

With `CC1CN(c2ncc(-c3ccc(C(C)(C)C#N)cc3)cc2C(=O)NS(=O)(=O)c2cccc(N)n2)C(C)(C)C1` (stereo not shown) [Compound 2521, N-[(6-amino-2-pyridyl)sulfonyl]-5-[4-(1-cyano-1-methyl-ethyl)phenyl]-2-(2,2,4-trimethylpyrrolidin-1-yl)pyridine-3-carboxamide], the EC30 under setting [1] is below 3000 nM. Same read-out and setting: for `C[C@@H]1CN(c2nc(C3=CCCN(C(=O)CC(C)(C)C)C3)ccc2C(=O)NS(=O)(=O)c2cccc(N)n2)C(C)(C)C1` [Compound 2650, N-[(6-amino-2-pyridyl)sulfonyl]-6-[1-(3,3-dimethylbutanoyl)-3,6-dihydro-2H-pyridin-5-yl]-2-[(4S)-2,2,4-trimethylpyrrolidin-1-yl]pyridine-3-carboxamide] the value was 3000 to 10000 nM. The same measure, in the same setting: under `CC1CN(c2ncccc2C(=O)NS(=O)(=O)c2cccc(N[C@H](C)C(C)C)n2)C(C)(C)C1` (stereo partly drawn) [Compound 2318, N—[[6-[[(1R)-1,2-dimethylpropyl]amino]-2-pyridyl]sulfonyl]-2-(2,2,4-trimethylpyrrolidin-1-yl)pyridine-3-carboxamide] stands below 3000 nM. Regarding `CC1(CNc2nc(C(C)(C)C)ccc2C(=O)NS(=O)(=O)c2ccc(N)cc2)CCOCC1` [Compound 752, N-(4-aminophenyl)sulfonyl-6-tert-butyl-2-[(4-methyltetrahydropyran-4-yl)methylamino]pyridine-3-carboxamide], under setting [2], the EC30 result was “++ (“++” means between 3 uM and 10 uM)”.

In the case of `Cc1cc(C)c(Cn2c(C(=O)NS(=O)(=O)c3ccccc3)cc3ccccc32)c(C)c1` [Compound 264, N-(benzenesulfonyl)-1-[(2,4,6-trimethylphenyl)methyl]indole-2-carboxamide], under setting [2], the EC30 entry is “+++ (“+++” means <3 uM)”. The same measure, in the same setting: for `Cc1cc(C)c(Oc2nc(-c3cc(F)cc(OCC(C)C)c3)ccc2C(=O)NS(=O)(=O)c2cccc(N)n2)c(C)c1` [Compound 196, N-[(6-amino-2-pyridyl)sulfonyl]-6-(3-fluoro-5-isobutoxy-phenyl)-2-(2,4,6-trimethylphenoxy)pyridine-3-carboxamide] the value was “+++ (“+++” means <3 uM)”. Take `CC(C)CCN(C)c1cccc(S(=O)(=O)NC(=O)c2cccnc2N2CC(C)CC2(C)C)n1` (stereo not shown) [Compound 2346, N—[[6-[isopentyl(methyl)amino]-2-pyridyl]sulfonyl]-2-(2,2,4-trimethylpyrrolidin-1-yl)pyridine-3-carboxamide]: under setting [1], the EC30 is below 3000 nM.

Turning to `COCC1CCN(c2nc(-c3ccc(OC(C)C)nc3)ccc2C(=O)NS(=O)(=O)c2cccc(N)n2)CC1` [Compound 606, N-[(6-amino-2-pyridyl)sulfonyl]-6-(6-isopropoxy-3-pyridyl)-2-[4-(methoxymethyl)-1-piperidyl]pyridine-3-carboxamide], the EC30 entry under setting [2] was “++ (“++” means between 3 uM and 10 uM)”. Still for that read-out and setting: under `Cc1cc(C)c(CN2CCc3ccccc3C2C(=O)NS(=O)(=O)c2cccc(N)c2)c(C)c1` (stereo not shown) [Compound 309, N-(3-aminophenyl)sulfonyl-2-[(2,4,6-trimethylphenyl)methyl]-3,4-dihydro-1H-isoquinoline-1-carboxamide] stands “+++ (“+++” means <3 uM)”; under `COc1ccc(F)cc1-c1cc(C(=O)NS(=O)(=O)c2ccccc2)n(Cc2c(C)cccc2C)n1` [Compound 27, N-(benzenesulfonyl)-2-[(2,6-dimethylphenyl)methyl]-5-(5-fluoro-2-methoxy-phenyl)pyrazole-3-carboxamide], “+++ (“+++” means <3 uM)”.

By EC30 is commonly meant the concentration needed for an effect of 30%.

For the origin of these results see patent US10758534B2 (Vertex Pharmaceuticals Incorporated, priority 2014, dated 2020).
